# Measured values: patent US8623377B2, “Joint-homing peptides and uses thereof” (University of Maryland, Baltimore, priority 2011, dated 2014)
# System: leukocyte infiltration into the joints of arthritic rats
# Assay: In vivo migration of PKH67-labeled leukocytes into the joints
# Set-up: species or system Lewis rat
sequence,measurement,setting,value
"CLDNQRPKC (Synthetic peptide homing to joint in an animal) [NQR peptide, joint-homing phage-derived synthetic peptide]",cell type on which the effect on infiltration was more marked,"CD3+ T cells vs CD11b/c+ myeloid cells, flow cytometry",more marked on CD3+ T cells than on CD11b/c+ myeloid cells
same,leukocyte infiltration into the joints,"versus nontreated arthritic or ADK-treated arthritic rats, 24 h after cell transfer",significantly less leukocyte infiltration
